Assay results as given in patent publication US20150284375A1 (AJINOMOTO CO., INC., priority 2012, published 2015).

biological target: T1, human TRPA1 (Homo sapiens, UniProt O75762); test: Measurement of TRPA1 antagonist activity (intracellular calcium increase, FLIPR, allylisothiocyanate stimulation); assay type: cell-based; conditions: allylisothiocyanate 20 μM stimulation, FLIPR calcium assay; read-out: antagonism hTRPA1
T1 construct: expressed in transfected cells; host or cells: Human embryonic kidney-derived 293T cells, transiently transfected with the pcDNA3.1/zeo(+) human TRPA1 plasmid
Method in brief: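 IC50 derives from a sigmoid fit of inhibition of the 5-min FLIPR fluorescence change evoked by 20 μM allylisothiocyanate, normalized between agonist and buffer responses. Test substance, diluted in HBSS/20 mM HEPES pH 7.2 plus 0.1% BSA, was applied 10 min beforehand at room temperature to Calcium4-loaded 293T cells transiently expressing human TRPA1.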

T1 sequence (O75762 whole entry): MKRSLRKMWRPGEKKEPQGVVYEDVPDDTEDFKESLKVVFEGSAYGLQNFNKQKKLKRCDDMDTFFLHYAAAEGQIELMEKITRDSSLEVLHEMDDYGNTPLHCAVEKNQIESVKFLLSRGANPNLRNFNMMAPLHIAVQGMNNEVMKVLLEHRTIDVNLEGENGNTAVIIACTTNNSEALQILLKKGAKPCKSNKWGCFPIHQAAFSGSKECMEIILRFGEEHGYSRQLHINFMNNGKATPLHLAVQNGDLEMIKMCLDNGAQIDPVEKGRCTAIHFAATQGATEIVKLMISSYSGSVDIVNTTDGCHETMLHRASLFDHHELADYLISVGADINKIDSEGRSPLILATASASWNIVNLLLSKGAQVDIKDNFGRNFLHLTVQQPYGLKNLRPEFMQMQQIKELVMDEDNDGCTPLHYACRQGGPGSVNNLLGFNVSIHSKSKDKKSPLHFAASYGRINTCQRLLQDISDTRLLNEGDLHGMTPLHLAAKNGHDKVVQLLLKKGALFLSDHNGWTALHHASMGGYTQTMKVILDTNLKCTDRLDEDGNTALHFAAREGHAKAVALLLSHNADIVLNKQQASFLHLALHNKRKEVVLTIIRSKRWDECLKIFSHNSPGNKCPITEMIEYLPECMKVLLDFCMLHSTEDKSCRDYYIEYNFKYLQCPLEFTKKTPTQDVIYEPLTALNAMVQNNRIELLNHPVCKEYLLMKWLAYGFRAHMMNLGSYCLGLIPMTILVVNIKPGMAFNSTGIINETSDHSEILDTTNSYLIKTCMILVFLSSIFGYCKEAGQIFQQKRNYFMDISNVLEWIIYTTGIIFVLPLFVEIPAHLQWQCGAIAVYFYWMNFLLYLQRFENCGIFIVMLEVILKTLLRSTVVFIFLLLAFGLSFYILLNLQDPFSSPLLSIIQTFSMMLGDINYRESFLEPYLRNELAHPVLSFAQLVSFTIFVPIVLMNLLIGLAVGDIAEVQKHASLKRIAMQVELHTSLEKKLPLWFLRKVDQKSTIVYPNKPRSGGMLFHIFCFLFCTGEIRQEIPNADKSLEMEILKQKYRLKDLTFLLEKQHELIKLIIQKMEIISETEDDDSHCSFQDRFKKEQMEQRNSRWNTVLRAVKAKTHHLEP

| Compound | IC50 |
| --- | --- |
| O=C(NCc1cccc(OCc2ccc(C(F)(F)F)nc2)c1)[C@@H]1CCCN1S(=O)(=O)c1ccco1 [Example 149, (2S)-1-(2-furylsulfonyl)-N-[[3-[[6-(trifluoromethyl)-3-pyridyl]methoxy]phenyl]methyl]pyrrolidine-2-carboxamide] | 0.24 µM |
| O=C(NCc1cccc(OCc2ccnc(C(F)(F)F)c2)c1)[C@@H]1CCCN1S(=O)(=O)c1ccco1 [Example 150, (2S)-1-(2-furylsulfonyl)-N-[[3-[[2-(trifluoromethyl)-4-pyridyl]methoxy]phenyl]methyl]pyrrolidine-2-carboxamide] | 0.11 µM |
| O=C(NCc1ccc(Oc2cccc(C(F)(F)F)c2)cc1)[C@@H]1C=CCN1S(=O)(=O)c1ccc(F)cc1 [Example 151, (2S)-1-(4-fluorophenyl)sulfonyl-N-[[4-[3-(trifluoromethyl)phenoxy]phenyl]methyl]-2,5-dihydropyrrole-2-carboxamide] | 0.29 µM |
| O=C(NCc1ccc(Oc2cccc(C(F)(F)F)c2)cc1)[C@@H]1CCCN1S(=O)(=O)c1ccco1 [Example 152, (2S)-1-(2-furylsulfonyl)-N-[[4-[3-(trifluoromethyl)phenoxy]phenyl]methyl]pyrrolidine-2-carboxamide] | 0.46 µM |
| O=C(NCc1ccc(Oc2cccc(C(F)(F)F)c2)cc1)[C@@H]1CCCN1S(=O)(=O)c1ccoc1 [Example 153, (2S)-1-(3-furylsulfonyl)-N-[[4-[3-(trifluoromethyl)phenoxy]phenyl]methyl]pyrrolidine-2-carboxamide] | 0.31 µM |
| O=C(NCc1ccc(Oc2cccc(C(F)(F)F)c2)cc1)[C@@H]1CCCN1S(=O)(=O)c1ccsc1 [Example 154, (2S)-1-(3-thienylsulfonyl)-N-[[4-[3-(trifluoromethyl)phenoxy]phenyl]methyl]pyrrolidine-2-carboxamide] | 0.18 µM |
| O=C(NCc1ccc(Oc2ccnc(C(F)(F)F)c2)cc1)[C@@H]1CCCN1S(=O)(=O)c1ccco1 [Example 155, (2S)-1-(2-furylsulfonyl)-N-[[4-[[2-(trifluoromethyl)-4-pyridyl]oxy]phenyl]methyl]pyrrolidine-2-carboxamide] | 5.7 µM |
| O=C(NCc1ccc(Oc2ccnc(C(F)(F)F)c2)cc1)[C@@H]1CCCN1S(=O)(=O)c1ccsc1 [Example 156, (2S)-1-(3-thienylsulfonyl)-N-[[4-[[2-(trifluoromethyl)-4-pyridyl]oxy]phenyl]methyl]pyrrolidine-2-carboxamide] | 1 µM |
| O=C(NCc1cccc(Oc2ccc(C(F)(F)F)cc2)c1)[C@@H]1C=CCN1S(=O)(=O)c1ccco1 [Example 160, (2S)-1-(2-furylsulfonyl)-N-[[3-[4-(trifluoromethyl)phenoxy]phenyl]methyl]-2,5-dihydropyrrole-2-carboxamide] | 0.21 µM |
| O=C(NCc1cccc(Oc2ccc(C(F)(F)F)cc2)c1)[C@@H]1C=CCN1S(=O)(=O)c1ccsc1 [Example 161, (2S)-1-(3-thienylsulfonyl)-N-[[3-[4-(trifluoromethyl)phenoxy]phenyl]methyl]-2,5-dihydropyrrole-2-carboxamide] | 0.057 µM |
| O=C(NCc1cccc(OCc2ccc(C(F)(F)F)cc2)c1)[C@@H]1C[C@H](F)CN1S(=O)(=O)c1ccc(F)cc1 [Example 164, (2S,4S)-4-fluoro-1-(4-fluorophenyl)sulfonyl-N-[[3-[[4-(trifluoromethyl)phenyl]methoxy]phenyl]methyl]pyrrolidine-2-carboxamide] | 0.45 µM |
| O=C(NCc1cccc(OCc2ccc(C(F)(F)F)cc2)c1)[C@@H]1C[C@@H](F)CN1S(=O)(=O)c1ccc(F)cc1 [Example 165, (2S,4R)-4-fluoro-1-(4-fluorophenyl)sulfonyl-N-[[3-[[4-(trifluoromethyl)phenyl]methoxy]phenyl]methyl]pyrrolidine-2-carboxamide] | 0.15 µM |
| O=C(NCc1cccc(OCc2ccc(C(F)(F)F)cc2)c1)[C@@H]1CC(F)(F)CN1S(=O)(=O)c1ccc(F)cc1 [Example 166, (2S)-4,4-difluoro-1-(4-fluorophenyl)sulfonyl-N-[[3-[[4-(trifluoromethyl)phenyl]methoxy]phenyl]methyl]pyrrolidine-2-carboxamide] | 0.11 µM |
| O=C(NCc1cccc(OCc2ccc(C(F)(F)F)cc2)c1)[C@@H]1C[C@@H](O)CN1S(=O)(=O)c1ccc(F)cc1 [Example 169, (2S,4R)-1-(4-fluorophenyl)sulfonyl-4-hydroxy-N-[[3-[[4-(trifluoromethyl)phenyl]methoxy]phenyl]methyl]pyrrolidine-2-carboxamide] | 0.29 µM |
| O=C(NCc1cccc(OCc2ccc(C(F)(F)F)cc2)c1)[C@@H]1C[C@H](O)CN1S(=O)(=O)c1ccc(F)cc1 [Example 170, (2S,4S)-1-(4-fluorophenyl)sulfonyl-4-hydroxy-N-[[3-[[4-(trifluoromethyl)phenyl]methoxy]phenyl]methyl]pyrrolidine-2-carboxamide] | 1.7 µM |
| O=C(NCc1cccc(OCc2ccc(C(F)(F)F)cc2)c1)[C@@H]1[C@H]2C[C@H]2CN1S(=O)(=O)c1ccc(F)cc1 [Example 171, (1R,4S,5S)-3-(4-fluorophenyl)sulfonyl-N-[[3-[[4-(trifluoromethyl)phenyl]methoxy]phenyl]methyl]-3-azabicyclo[3.1.0]hexane-4-carboxamide] | 1.9 µM |
| O=C(NCc1cccc(OCc2ccc(C(F)(F)F)cc2)c1)[C@@H]1[C@@H]2C[C@@H]2CN1S(=O)(=O)c1ccc(F)cc1 [Example 172, (1S,4S,5R)-3-(4-fluorophenyl)sulfonyl-N-[[3-[[4-(trifluoromethyl)phenyl]methoxy]phenyl]methyl]-3-azabicyclo[3.1.0]hexane-4-carboxamide] | 1.2 µM |

More lines, now with the values ahead:

| IC50 | Compound |
| --- | --- |
| 0.33 µM | O=C(NCc1cccc(OCc2ccco2)c1)[C@@H]1CCCN1S(=O)(=O)c1ccc(F)cc1 [Example 140, (2S)-1-(4-fluorophenyl)sulfonyl-N-[[3-(2-furylmethoxy)phenyl]methyl]pyrrolidine-2-carboxamide] |
| 0.089 µM | O=C(NCc1cccc(OCc2ccsc2)c1)[C@@H]1CCCN1S(=O)(=O)c1ccc(F)cc1 [Example 141, (2S)-1-(4-fluorophenyl)sulfonyl-N-[[3-(3-thienylmethoxy)phenyl]methyl]pyrrolidine-2-carboxamide] |
| 0.11 µM | O=C(NCc1cccc(OCc2cccs2)c1)[C@@H]1CCCN1S(=O)(=O)c1ccc(F)cc1 [Example 142, (2S)-1-(4-fluorophenyl)sulfonyl-N-[[3-(2-thienylmethoxy)phenyl]methyl]pyrrolidine-2-carboxamide] |
| 0.55 µM | C[C@H](Oc1cccc(CNC(=O)[C@@H]2CCCN2S(=O)(=O)c2ccc(F)cc2)c1)c1ccccc1 [Example 144, (2S)-1-(4-fluorophenyl)sulfonyl-N-[[3-[(1S)-1-phenylethoxy]phenyl]methyl]pyrrolidine-2-carboxamide] |
| 9.8 µM | C[C@@H](Oc1cccc(CNC(=O)[C@@H]2CCCN2S(=O)(=O)c2ccc(F)cc2)c1)c1ccccn1 [Example 146, (2S)-1-(4-fluorophenyl)sulfonyl-N-[[3-[(1R)-1-(2-pyridyl)ethoxy]phenyl]methyl]pyrrolidine-2-carboxamide] |
| 8.3 µM | C[C@H](Oc1cccc(CNC(=O)[C@@H]2CCCN2S(=O)(=O)c2ccc(F)cc2)c1)c1ccccn1 [Example 147, (2S)-1-(4-fluorophenyl)sulfonyl-N-[[3-[(1S)-1-(2-pyridyl)ethoxy]phenyl]methyl]pyrrolidine-2-carboxamide] |
| 0.34 µM | O=C(NCc1cccc(OCCc2ccccc2)c1)[C@@H]1CCCN1S(=O)(=O)c1ccc(F)cc1 [Example 148, (2S)-1-(4-fluorophenyl)sulfonyl-N-[(3-phenethyloxyphenyl)methyl]pyrrolidine-2-carboxamide] |
| 0.84 µM | O=C(NCc1cccc(Oc2ccc(C(F)(F)F)cc2)c1)[C@@H]1C[C@H](F)CN1S(=O)(=O)c1ccc(F)cc1 [Example 157, (2S,4S)-4-fluoro-1-(4-fluorophenyl)sulfonyl-N-[[3-[4-(trifluoromethyl)phenoxy]phenyl]methyl]pyrrolidine-2-carboxamide] |
| 0.21 µM | O=C(NCc1cccc(Oc2ccc(C(F)(F)F)cc2)c1)[C@@H]1CC(F)(F)CN1S(=O)(=O)c1ccc(F)cc1 [Example 159, (2S)-4,4-difluoro-1-(4-fluorophenyl)sulfonyl-N-[[3-[4-(trifluoromethyl)phenoxy]phenyl]methyl]pyrrolidine-2-carboxamide] |
| 0.096 µM | O=C(NCc1cccc(Oc2ccc(C(F)(F)F)cc2)c1)[C@@H]1CCCN1S(=O)(=O)c1ccoc1 [Example 162, (2S)-1-(3-furylsulfonyl)-N-[[3-[4-(trifluoromethyl)phenoxy]phenyl]methyl]pyrrolidine-2-carboxamide] |
| 0.027 µM | O=C(NCc1cccc(OCc2ccc(C(F)(F)F)cc2)c1)[C@@H]1CCCN1S(=O)(=O)c1ccc(F)cc1 [Example 163, (2S)-1-(4-fluorophenyl)sulfonyl-N-[[3-[[4-(trifluoromethyl)phenyl]methoxy]phenyl]methyl]pyrrolidine-2-carboxamide] |
| 0.24 µM | O=C(NCc1cccc(OCc2ccc(C(F)(F)F)cc2)c1)[C@@H]1[C@@H](O)CCN1S(=O)(=O)c1ccc(F)cc1 [Example 167, (2S,3S)-1-(4-fluorophenyl)sulfonyl-3-hydroxy-N-[[3-[[4-(trifluoromethyl)phenyl]methoxy]phenyl]methyl]pyrrolidine-2-carboxamide] |
| 2.2 µM | O=C(NCc1cccc(OCc2ccc(C(F)(F)F)cc2)c1)[C@@H]1[C@H](O)CCN1S(=O)(=O)c1ccc(F)cc1 [Example 168, (2S,3R)-1-(4-fluorophenyl)sulfonyl-3-hydroxy-N-[[3-[[4-(trifluoromethyl)phenyl]methoxy]phenyl]methyl]pyrrolidine-2-carboxamide] |
